Read-outs that look alike come from different tables or passages of the source.
Assays:
rye seedlings = experiment: Drought stress recovery of rye seedlings; assay type: in vivo; conditions: 10 μM, 9 days drought
Method: (§1) The seeds of each plant were washed with 5% sodium hypochlorite for 15 minutes (with shaking at 120 rpm) and then washed three times in sterile distilled water. The seeds were placed on two layers of waterlogged 3 MM for ˜72 hours under lights at RT until hypocotyl emerged. 7-10 germinated seeds were incubated in sterile Magenta boxes containing 100 mL perlite per box, moistened with 60 ml sterile distilled water and autoclaved. The seeds were incubated in a growth cabinet with a 12 hour light/dark cycle at 22° C. until the first seedling reached approximately 5 cm height. This took approximately 4-5 days. The water was then replaced with 0.5×Hoagland solution with the test compounds (or DMSO for control samples) for 24 hour (Hoagland's No2 Basal salt mixture, Sigma, H2395, use 1.6 g/L in sterile water and autoclaved), and returned to growth cabinet. The media was then removed, the perlite was rinsed twice with sterile distilled water and the solution was replace with 35 ml 0.5 ×Hoaglands solution and returned to the growth cabinet for 24 hours.
The no drought sample was then grown in 0.5×Hoaglands solution and the solution was topped up daily. […]
The drought testing was repeated with rye seedlings and the results are shown in FIG. 11 wherein the data was measured following 5 days of growth, 9 days of drought and 19 days of recovery. […]

A. thaliana = A. thaliana root and hypocotyl extension after 6 days; assay type: in vivo; conditions: for concentration from which dose dependent effect on root/hypocotyl growth is seen: versus DMSO control, FIG. 6B; for potency compared to AIB: hypocotyl or root extension, from table 3; for effect on root and hypocotyl growth: FIG. 6A
Method: In these experiments, A. thaliana seeds were germinated and grown in 24 h light conditions for 6 days and root and hypocotyl length were recorded (FIG. 6A and 6B).
The IC50 values for the root or hypocotyl extension after 6 days for 5,5-dimethyl-2-(2-phenylacetyl) cyclohexane-1,3-dione (ACOi-84-16-4), 3-[(2E)-3-(4-fluorophenyl)prop-2-enoyl]-4-hydroxy-6-methyl-2H-pyran-2-one (ACOi-74-12-16) and MyA, compared to known compounds AIB and POA are presented in table 3. Images of the plant growth and the root hairs are shown in FIG. 6B for 5,5-dimethyl-2-(2-phenylacetyl) cyclohexane-1,3-dione (ACOi-84-16-4) and 3-[(2E)-3-(4-fluorophenyl)prop-2-enoyl]-4-hydroxy-6-methyl-2H-pyran-2-one (ACOi-74-12-16) and FIG. 6A for MyA and comparably for AIB and POA.

Carnations = experiment: Cut carnation flower senescence (flower size); assay type: in vivo; conditions: for slowing of flower senescence versus control: 0.01 mM or 0.02 mM, flower size after 9 days; for performance versus POA and AIB: 0.01/0.02 mM versus POA 0.5/1 mM, AIB 5/10 mM
Method: Carnations were cut to approximately 5 cm long stems and placed in a solution wherein the solution comprised 5 mL water and either no additional components (control), 0.01 mM or 0.02 mM of 5,5-dimethyl-2-(2-phenylacetyl) cyclohexane-1,3-dione (labelled as 4B) or 3-[(2E)-3-(4-fluorophenyl)prop-2-enoyl]-4-hydroxy-6-methyl-2H-pyran-2-one (labelled as 16B) or 0.5 mM or 1 mM of POA or 10 mM or 5mM of AIB were added. The flower size coverage was measured and the petal shrinkage, or reduction in flower size, is used as an indicator of flower senescence.

D. discoideum WT cells = experiment: D. discoideum multicellular development, block at mound stage; assay type: cell-based
Method: The effect of MyA on multicellular development of D. discoideum was measured. The MyA was tested at a concentration of 100 μM.
The effect of ACO loss on multicellular development was assessed. ACO-D. discoideum mutants were engineered and compared to standard wild type D. discoideum cells.

barley seedlings = experiment: Drought stress recovery of barley seedlings; assay type: in vivo; conditions: 5 days growth, 9 days drought, 12 days watered
Method: as §1
The no drought sample was then grown in 0.5×Hoaglands solution and the solution was topped up daily.
The drought samples were exposed to drought conditions for 9 days by removing the media and returned to the growth cabinet. At recovery, 0.5×Hoaglands solution was added back to the drought sample Magenta boxes, up to the top of the perlite and this level was maintained during recovery. The plant recovery over time (up to 19 days post rescue) was recorded and the photographs from the end of the experiment are illustrated in FIG. 8, FIG. 9 and FIG. 11.
10 μM of 3-[(2E)-3-(4-fluorophenyl)prop-2-enoyl]-4-hydroxy-6-methyl-2H-pyran-2-one (labelled as 16B), 10 μM of 5,5-dimethyl-2-(2-phenylacetyl) cyclohexane-1,3-dione (labelled as 4B) and […] of AIB and 500 μM of POA were tested on barley seedlings.

wheat seedlings = experiment: Drought stress recovery of wheat seedlings; assay type: in vivo; conditions: 10 μM, 9 days drought, 19 days recovery
Method: as §1, with “The media was then removed, the perlite was rinsed twice with sterile distilled water and the solution was replace with 35 ml 0.5 ×Hoaglands solution and returned to the growth cabinet for 24 hours.” left out
The drought samples were exposed to drought conditions for 9 days by removing the media and returned to the growth cabinet. […] The plant recovery over time (up to 19 days post rescue) was recorded and the photographs from the end of the experiment are illustrated in FIG. 8, FIG. 9 and FIG. 11.
The drought testing was repeated with wheat seedlings and the results are shown in FIGS. 9 and 10 wherein the data was measured following 5 days of growth, 9 days of drought and 19 days of recovery. […]

ethylene production = experiment: Ethylene production of D. discoideum cells, headspace GCMS; assay type: cell-based; conditions: 500 μM
Method: Wild type cells in the presence or absence of MyA (500 μM), or ACO-cells were maintained in sealed small flasks with limited head space over 36 h, and headspace gas was taken at 6-hour intervals and analysed by GCMS.

[1] = tested on: csA, cAR1, pspA, ecmA expression; experiment: Developmental gene expression in D. discoideum by qPCR; assay type: cell-based; conditions: 100 μM, 0 to 20 hours
Method: To provide quantitative analysis of the developmental effects of MyA, wild type cells were induced to develop on nitrocellulose filters for time periods between 0 and 20 hours, using cells under solvent only conditions, in the presence of MyA (100 μM), or in the presence of MyA and CEPA. Developmental gene expression associated with early aggregation (csA), […], and in late development (ecmA) were assessed using qPCR. […] Similar delays in peak gene expression were also seen for carA (peak 4 h), and pspA (peak 12 h), and ecmA (peak 20 h), following MyA treatment, and these delays were rescued by addition of exogenous ethylene. These experiments confirm a MyA-dependent delay in D. discoideum development that is rescued by exogenous ethylene application, consistent with a role for MyA in inhibiting ACO activity and slowing crop maturation.

D. discoideum cells = experiment: Inhibition of D. discoideum unicellular growth (wild type); assay type: cell-based
Method: The unicellular growth rate and multicellular of D. discoideum cells on exposure to MyA was tested and the results are illustrated in FIG. 1 and FIG. 2.
D. discoideum cells were divided by binary fission in nutrient-rich media, initially with a lag phase (0-120 h), and then an exponential phase. The D. discoideum cells were then exposed to MyA at concentrations of 0 μm, 1 μm, 10 μm, 15 μm, 25 μm, 50 μm and 100 μm.

[2] = tested on: ACO ablated D. discoideum cells (ACO-); experiment: Growth sensitivity of ACO-mutant D. discoideum cells to MyA; assay type: cell-based
Excerpt: The cell and developmental role of the D. discoideum ACO protein were investigated. FIG. 3C illustrates the resistance to the growth and developmental inhibitory effect of MyA on wild type D. discoideum cells (WT) and ACO ablated D. discoideum cells (ACO-).

[3] = Arabidopsis thaliana, 144 h, Hypocotyl, 6 days, read-out: IC50 hypocotyl extension
[4] = Arabidopsis thaliana, 144 h, Root, 6 days, read-out: IC50 root extension
[5] = Hypocotyl, 6 days, read-out: IC50 hypocotyl extension

Compound	concentration from which dose dependent effect on root/hypocotyl growth is seen (A. thaliana; 6 days) [μm]	IC50 (A. thaliana; [3]) [µM]	IC50 (A. thaliana; [4]) [µM]	potency compared to AIB (A. thaliana)	slowing of flower senescence versus control (Carnations)	performance versus POA and AIB (Carnations)	efficacy in development block model (D. discoideum WT cells; 100 μM)	recovery after drought (barley seedlings; 10 μM)	effect on root and hypocotyl growth (A. thaliana; 6 days)	IC50 (A. thaliana; [5]) [µM]	further results
Cc1cc(O)c(C(=O)/C=C/c2ccc(F)cc2)c(=O)o1 [ACOi-74-12-16, 3-[(2E)-3-(4-fluorophenyl)prop-2-enoyl]-4-hydroxy-6-methyl-2H-pyran-2-one]	5	0.79	1.02	1580 fold	significant effect	comparable performance	potent efficacy	comparable seedling height to the control sample which had been watered throughout the duration	–	–	recovery after drought versus untreated drought control (rye seedlings; 19 days recovery): improved recovery; recovery after drought (rye seedlings; 23 days recovery): continues to recover; recovery after drought versus untreated drought control (wheat seedlings): improved recovery; seedling height and mass versus drought control (wheat seedlings; FIG. 10): increased height and mass
CC1(C)CC(=O)C(C(=O)Cc2ccccc2)C(=O)C1 [ACOi-84-16-4, 5,5-dimethyl-2-(2-phenylacetyl)cyclohexane-1,3-dione]	5	8.2	6.9	over 5400 fold	significant effect	comparable performance	potent efficacy	comparable growth to the same treated with 10,000 μM AIB	–	–	–
CC(C)(N)C(=O)O [AIB, a-aminoisobutyric acid, reference compound]	–	–	–	–	–	–	–	–	dose-dependent reduction	4290	IC50 (A. thaliana; Root, 6 days, read-out: IC50 root extension): 1620 µM; recovery after drought (barley seedlings; 2,000 μM): did slightly better; recovery after drought (barley seedlings; 10,000 μM): did better still
CC1C(=O)C(C(=O)CCc2ccccc2)C(=O)C(C)(C)C1=O (centres unmarked) [MyA, 2,2,4-trimethyl-6-(3-phenylpropanoyl) cyclohexane-1,3,5-trione]	–	59.4	53.3	–	–	–	–	–	comparative reduction	–	decrease in ethylene production (ethylene production; 12 hours, P=0.031): 39.5%; decrease in ethylene production (ethylene production; 36 hours, P=0.0025): 37.9%; lowest concentration shown to have an effect on growth (A. thaliana; root and hypocotyl, 6 days, 24 h light): 0.025 mM; lowest effective concentration, times lower than AIB (A. thaliana; versus AIB): 20 times; lowest effective concentration, times lower than POA (A. thaliana; versus POA): 4 times; peak expression of developmental genes (csA, carA, pspA, ecmA) [1]: delayed; effect on multicellular development (D. discoideum WT cells; 100 μM, 24 hours): later stages of development were delayed; development after extended incubation (D. discoideum WT cells; 100 μM, 36 hours): developed into fully mature fruiting bodies; lethality of high dose (D. discoideum WT cells; 100 μM, 36 hours): not lethal; rescue of developmental delay by exogenous ethylene (CEPA) (D. discoideum WT cells; MyA 100 μM plus CEPA): partially rescued; effect on unicellular growth (D. discoideum cells; 10 μM, P<0.05): significant reduction; effect on unicellular growth (D. discoideum cells; 100 μM): block in growth; IC50 (D. discoideum cells; Dictyostelium discoideum, wild type D. discoideum, secondary plot of normalised growth rate): 7.6 µM; reduction in potency in the ACO-mutant versus wild type [2]: four-fold; IC50 ([2]; Dictyostelium discoideum, ACO- D. discoideum cells): 29.9 µM
O=C(O)c1cnccn1 [POA, pyrazinecarboxylic acid, reference compound]	–	–	213	–	–	–	–	–	dose-dependent reduction	184	recovery after drought (barley seedlings; 500 μM): did not show positive result

From patent US20250366472A1, “1-AMINOCYCLOPROPANE-1-CARBOXYLIC ACID OXIDASE INHIBITORS (ACO-I)” (Royal Holloway and Bedford New College, priority 2022, published 2025)
